Reference: patent US20090011424A1, “Cancer-suppressing agents” (Tokyo Medical and Dental University, priority 2005, published 2009)

Legend:
IMR32 cells = assay: soft agar colony formation after gene introduction; type: cell-based, human; settings: 3 weeks, 500 μg/ml G418, vs empty vector
Procedure: (§1) Adherence to solid matter has been known as an example of a difference between properties of normal cells and those of cancer cells under culture conditions. In other words, it is necessary for normal cells to adhere to solid matter for cell proliferation (anchorage dependence). When normal cells are cultured in a soft agar medium (about 0.33%), they can not proliferate while floating in such medium. However, many cancer cells lack anchorage dependence so that they can proliferate in a soft agar medium. Since floating cancer cells cannot move in a soft agar medium, a single cancer cell is repeatedly divided such that the divided cells form a colony in 1 to 3 weeks time. Since there is a correlation between the ability of the cell to form a soft agar colony and the implanted tumor forming ability, the degree of such ability has been widely used as an index of malignancy (Shin, S. I., et al., Proc. Natl. Acad. Sci. USA 72, 4435, 1975). A full-length NR1I2 cDNA was inserted into pCMV-Tag3 vector (Stratagene) in which an myc peptide can be added to the amino terminal of an inserted gene (PCMV-Tag3-NR1I2). In addition, we already have discovered that a fusion product of a herpes-virus-derived VP16 protein and an NR1I2 protein has stronger transcriptional activity than that of an NR1I2 protein alone. […] Then, the number of colonies was counted (FIGS. 8A and 8B).

SMS-KAN cells = assay: soft agar colony formation after gene introduction; type: cell-based, human; settings: 3 weeks, 500 μg/ml G418, vs empty vector
Procedure: as §1

Question: How did the number of colonies (IMR32 cells) turn out when “NR1I2 gene: human-derived gene, nuclear receptor subfamily 1, group I, member 2 (pregnane X receptor, PXR), nucleotide sequence SEQ ID NO: 1” was run?
Answer: significantly reduced

Question: And the number of colonies (SMS-KAN cells)?
Answer: significantly reduced
